US10407712B2, “Methods, compositions and kits for high throughput kinase activity screening using mass spectrometry and stable isotopes” (President and Fellows of Harvard College, priority 2008, dated 2019)

What was measured:
[1] = system: Src family kinase; experiment: Immunoblot of HEK293 cells treated with Src family kinase inhibitor; format: cell-based, human; conditions: asynchronously growing HEK293 cells
Protocol: FIG. 7E is a photograph of immunoblot data of lysates following treatment of asynchronously growing HEK293 cells with Sic family kinase (SFK) specific inhibitor SU6656 in starved or serum-fed cells.
Lysates were resolved on 4 to 12% SDS/PAGE, transferred onto Potran membranes (Whatman), blocked with 3% milk in TBST (Tris Buffered Saline Tween-20), incubated with 1:1,000 dilution of primary antibody at 4° C. overnight, washed, and incubated with a 1:5,000 dilution of second antibody (HRP-conjugated) with 3% milk in TBST for 1 h at room temperature. Bands were visualized with ECL solution (Roux et al. 2004 Proc Natl Acad Sci USA 101: 13489-[…]).
To further investigate whether this is a Src-dependent site in vivo, asynchronously growing HEK293 cells were treated with the specific Src family kinase inhibitor, Su6656. […] Further, MCF10A cells expressing v-Src:estrogen receptor (Reginato et al. 2005 Mol Cell Biol 25: 4591-4601) were treated with 1 μM 4-hydroxytamoxifen (4-HT) to activate v-Src as a function of time (FIG. 7F).

[2] = molecular target: T1, Src (Homo sapiens, UniProt P12931); experiment: In vitro kinase reaction of H5 peptide with purified Src; format: biochemical
T1 construct: Src (full length); purchased Cell Signaling Technology (Danvers, Mass.)
Text: (§1) FIG. 7D is a line graph showing in vitro phosphorylation of peptide H5 (SEQ ID NO: 87) using each of purified Src and EGFR.
(§2) Purified human active kinases of Akt1 (full length), extracellular signal-regulated kinase 1 (ERK1, 1-379), mitogen-activated protein kinase kinase 1 (MEK1, 1-393), 90 kDa ribosomal S6 kinases 1 (RSK1, 1-735), cAMP-dependent protein kinase (PKA) catalytic subunit-α (PKA Cα, 1-351), protein kinase Cα (PKCα, full length), epidermal growth factor (EGF) receptor (EGFR, 672-1210), platelet-derived growth factor (PDGF) receptor α (PDGFRα, 550-1090), vascular endothelial growth factor (VEGF) receptor 1 (VEGFR1 784-1338), Src (full length), casein kinase 2 (CK2, full length), Aurora A (1-403), AMP-activated protein kinase α1β1γ1 (AMPK α1β1γ1, full length), glycogen synthase kinase-3α (GSK-3α, 1-483) and MAP/microtubule affinity-regulating kinase 1 (MARK 1, full length) were obtained from Cell Signaling Technology (Danvers, Mass.). Cdc2/cyclin B1 (full length) and insulin-like growth factor (IGF)-I receptor (IGFIR, 959-1367) were obtained from Upstate (Temecula, Calif.).
(§3) In order to identify the kinase that phosphorylates p55 (Tyr-199) lysates of serum-starved HEK293 cells were used for insulin, IGF and EGF stimulation. […]

[3] = system: HeLa cell lysates; experiment: KAYAK in vitro kinase assay, lysates of asynchronous, G1/S- or G2/M-arrested HeLa cells; format: biochemical, human
Protocol: For cell cycle examples, HeLa cells were synchronized by double thymidine block for G1/S-arrest and by 0.2 μg/ml nocodazole for G2/M-arrest as described (Dephoure et al. 2008 Proc Natl Acad Sci USA 105: 10762-10767). Synchronization was confirmed by flow cytometry.
For cell lysis, the media were removed, and cells were washed with ice-cold phosphate-buffered saline (PBS) and lysed with ice-cold lysis buffer (10 mM K2HPO4 pH 7.5, 1 mM EDTA, 10 mM MgCl2, 50 mM β-glycerophosphate, 5 mM EGTA, 0.5% Nonidet P-40, 0.1% Brij 35, 0.1% deoxycholic acid, 1mM sodium orthovanadate, 1mM phenylmethyl-sulfonyl fluoride, 5 μg/ml leupeptin and 5 μg/ml pepstatin A). Lysates were centrifuged at 10,000 rpm for 10 min to remove cell debris, and clear supernatant was used for immunoblotting and in vitro kinase assays. Protein concentration was determined by Bradford assay (Biorad, Hercules, Calif.).
Peptides were synthesized, purified and quantified as described in Yu et al. 2009 Proc Natl Acad Sci USA 106: 11606-11611, hereby incorporated by reference herein in its entirety. Each substrate peptide (250 pmol) was mixed to a final concentration of 5 μM in the 50 μL reaction mixture. Alternatively, reactions were performed using 6 μg cell lysate aliquotes mixed to a final volume of 20 μl. Cell lysate or other kinase source was added to the substrate mixture in 25 mM Tris-Cl, pH 7.5, containing 5 mM ATP, 7.5 mM MgCl2, 0.2 mM EGTA, 7.5 mM β-glycerophosphate, 0.1 mM Na3VO4, and 0.1 mM DTT. The reaction was incubated at 25° C. for 60 min and then terminated by the addition of 100 μl of 1% trifluoroacetic acid (TFA) containing a known amount of an internal standard (typically 20 pmol). Alternatively, the reaction was incubated at 20° C. for 45 min before termination with TFA.
Forty-five individual in vitro kinase reaction mixtures were combined and desalted by using Sep-Pak C18 cartridge (Waters, Milford, Mass.). Phosphopeptides were enriched by immobilized metal ion chromatography (IMAC) with 20 μl of beads (Phos-Select iron affinity gel; Sigma, St. Louis, Mo.) and subsequently desalted by using Empore C18 solid phase extraction disks (3M, St. Paul, Minn.) as described previously.
Quantitation of the target peptide-internal standard ratios was performed by first constructing the extracted ion chromatogram for the most abundant charge state for each peptide using a ±10 ppm window. Chromatograms were integrated using Qual/Quan browser (Xcalibur 2.0.5, Thermo Fisher, San Jose, Calif.). Since the phosphorylated peptides generated from the in vitro kinase reactions were chemically identical to the internal standards, they were assumed to have the same ionization efficiency. Therefore, the amount of each phosphorylated peptide was calculated by direct ratio to the internal standard level.
To test substrate suitability in a multiplexed assay, the phosphorylation activities were measured using […] of each substrate peptide, 6 μg lysate, and 5 mM ATP in a plate format. Reactions proceeded for 60 minutes followed by acidification and the addition of isotope-labeled reference peptides. After pooling 45 samples, phosphopeptide enrichment was followed by liquid-chromatography (LC) separation and on-line peptide detection by high-resolution mass spectrometry.
In order to examine target peptides with cell-cycle-dependent phosphorylation, kinase activities in asynchronously growing HeLa cells were profiled and the profiles were compared with those of cells synchronized in G1/S and G2/M phase using a double-thymidine block and nocodazole arrest, respectively (FIG. 3B).

[4] = molecular target: T2, EGFR (Homo sapiens, UniProt P00533); experiment: In vitro kinase reaction of H5 peptide with purified EGFR; format: biochemical
T2 construct: epidermal growth factor (EGF) receptor (EGFR, 672-1210); purchased Cell Signaling Technology (Danvers, Mass.)
Text: as §1, §2, §3

Molecule | level of phospho-Src (Tyr-416) [1] | level of phospho-p55 (Tyr-199) [1] | phosphorylation by Src [2] | increase in phosphorylation in G2/M ([3]; G2/M (nocodazole-arrested) HeLa lysate vs asynchronously growing cells) [fold] | G2/M: changed phosphorylation ([3]; G2/M phase compared to asynchronously growing HeLa cells) | phosphorylation by EGFR [4]
CN(C)S(=O)(=O)c1ccc2c(c1)/C(=C/c1cc3c([nH]1)CCCC3)C(=O)N2 [Su6656, SU6656] | diminished | diminished |  |  |  | 
EYDRLYEEYTPFR (The sequence was designed and synthesized) [H5] |  |  | robust phosphorylation | 13 | ++ (A change of more than +4 and −4 fold is indicated by “++” and “−−”, respectively.) | not
